US20110178104A1, “Anti-Heparin Compounds” (POLYMEDIX INC., priority 2010, published 2011)
In brackets after ≈: the same amount, converted by molar mass. Several values for one entry are separate records, joined by “and”; a condition that tells them apart may be missing. Equal values may be shown once. Read-outs that look alike come from different tables or passages of the source. Starred links: 1 amine or outer side, 2 acyl side, 3 side chain; linkers in the order of their positions; H or OH if unused. Non-standard residues stand in square brackets, D forms with d. Residues, ends and D or L forms follow the SMILES beside them. *: point of attachment. NH(3-CONH2-4-OMe-phenyl) = COc1ccc(N*)cc1C(N)=O; 3Abz(6-OMe) = COc1ccc(N[*:1])cc1C(=O)[*:2]; X1 = O=C(O)COc1ccc(N[*:1])cc1C(=O)[*:2]

Assays:
enoxaparin = assay: FXa amidolytic assay (Example 10), enoxaparin; settings: read-out: Enox FXa EC50; enoxaparin 0.1 ug/ml; human antithrombin, bovine Factor Xa
Procedure: (§2) Two μl of test agent are added (range between 0.01 and 23 ug/ml) and incubated for 5 minutes at 23° C. Bovine Factor Xa was added to a final concentration of 0.636 nkat/mL and incubated for a further 10 minutes at 23° C.

[1] = Cytotoxicity colorimetric assay, HepG2; assay type: cell-based, human; settings: human, HepG2 cells, one hour in serum-free media
Procedure: (§1) This assay measures the bioreduction of a novel tetrazolium compound to a soluble formazan product by viable cells. HepG2 cells were seeded in 96 well plates at 3×10^4 cells/well in MEM medium with 10% fetal bovine serum (FBS) 24 hours prior to use. NIH/3T3 cells were seeded in 96 well plates at 2×10^4 cells/well in DMEM medium with 10% bovine calf serum (BCS) 24 hours prior to use. Cell monolayers were rinsed in serum-free media and incubated for one hour with test agent in serum-free media. After incubation, the media was replaced with serum supplemented media and live cells were measured using the Cell Titer 96 Aqueous […] Assay kit (Promega, Madison, Wis.). EC50 values were determined using a four parameter logistic equation: Y=Bottom+(Top-Bottom)/(1+10̂((LogEC50-X)*HillSlope)).

Unfractionated heparin = assay: aPTT clotting assay, UFH 0.4 U/mL in plasma (Example 10); assay type: biochemical; settings: unfractionated heparin 0.4 U/mL in plasma; aPTT clotting
Procedure: aPTT clotting Assay: Unfractionated heparin was mixed with plasma at a final concentration of 0.4 U/mL (or concentration which increases aPTT time to between 120 and 300 seconds). […] The ACL Elite Hemostasis analyzer (Beckman Coulter™) was used to add aPTT reagent (HemosIL SynthASil) to supplemented plasma. Clotting was initiated by addition of CaCl2 and time to clot was recorded.

fondaparinux = assay: FXa amidolytic assay (Example 10), fondaparinux; settings: read-out: Fondap FXa EC50; fondaparinux 0.02 μg/mL; human antithrombin, bovine Factor Xa
Procedure: as §2

tinzaparin = assay: FXa amidolytic assay (Example 10), tinzaparin; settings: read-out: Tinzap FXa EC50; tinzaparin 0.1 ug/ml; human antithrombin, bovine Factor Xa
Procedure: as §2

[2] = test system: isolated human erythrocytes; assay: cells; assay type: cell-based; settings: Homo sapiens, Erythrocyte, 1 h, read-out: Hemolysis EC50
Procedure: Hemolysis assay: Cytotoxicity was also evaluated in a hemolysis assay using isolated human erythrocytes. Pooled whole human blood was centrifuged to separate the red blood cells (RBC). The isolated RBCs were rinsed and diluted in Tris-buffered saline (TBS buffer, pH 7.4) to obtain a 0.22% RBC stock suspension. Serial two-fold dilutions of test agent were assayed over a concentration range of 1000 to 0.48 μg/ml with shaking for 1 hour at 37° C. At the conclusion of the incubation time, samples were centrifuged and 30 μl of the supernatant was added to 100 μl H2O. OD405 measurements were read for hemoglobin concentration. The bee venom peptide melittin was used as a positive control. EC50 values were determined using a four parameter logistic equation: Y=Bottom+(Top-Bottom)/(1+10̂((LogEC50-X)*HillSlope)).

[3] = Cytotoxicity colorimetric assay, NIH/3T3; assay type: cell-based, mouse; settings: mouse, NIH/3T3 cells, one hour in serum-free media
Procedure: as §1

UFH = assay: FXa amidolytic assay (Example 10), UFH; settings: read-out: Heparin FXa uM EC50; UFH 0.03 units/mL; human antithrombin, bovine Factor Xa
Procedure: as §2

SMILES | EC50 (enoxaparin) | EC50 at 1 h [1] | EC50 (Unfractionated heparin) | EC50 (fondaparinux) | EC50 (tinzaparin) | EC50 ([2]; human RBC, 1 hour at 37° C.) | EC50 at 1 h [3] | EC50 (UFH) | EC50 [2]
COc1ccc(NC(=O)[C@@H](CCCNC(=N)N)NC(=O)c2cc(NC(=O)[C@@H](CCCNC(=N)N)NC(=O)c3cc(NC(=O)[C@@H](CCCNC(=N)N)NC(=O)c4cc(NC(C)=O)ccc4OC)ccc3OC)ccc2OC)cc1C(N)=O [Compound 229] | 0.215 µM and 0.207 µM | > 1000 µg/mL | 1.85 µM and 2.27 µM | 0.587 µM and 0.322 µM | 0.167 µM and 0.164 µM | ~500 µg/mL (≈ 445 µM) | – | – | –
COc1ccc(NC(=O)[C@H](CCCCN)NC(=O)c2cc(NC(=O)[C@H](CCCCN)NC(=O)c3cc(NC(=O)[C@H](CCCCN)NC(=O)c4cc(NC(=O)[C@@H](N)CCCCN)ccc4OC)ccc3OC)ccc2OC)cc1C(=O)O [Compound 250] | 3.28 µM | > 1000 µg/mL | 2.73 µM | > 10 µM | 1.29 µM | – | > 1000 µg/mL | – | –
COc1ccc(NC(=O)[C@@H](CCCNC(=N)N)NC(=O)c2cc(NC(=O)[C@@H](CCCNC(=N)N)NC(=O)c3cc(NC(=O)[C@@H](CCCNC(=N)N)NC(=O)c4cc(NC(C)=O)ccc4OC)ccc3OC)ccc2OCC(=O)O)cc1C(=O)N[C@H](Cc1c[nH]c2ccccc12)C(=O)O [Compound 306] | 0.198 µM and 0.338 µM | ~1000 µg/mL (≈ 738 µM) | > 10 µM | – | 0.199 µM and 0.367 µM | ~1000 µg/mL (≈ 738 µM) | – | 0.236 µM | –
COc1ccc(NC(=O)[C@H](CCCNC(=N)N)NC(=O)c2cc(NC(=O)[C@H](CCCNC(=N)N)NC(=O)c3cc(NC(=O)[C@H](CCCNC(=N)N)NC(=O)c4cc(NC(C)=O)ccc4OC)ccc3OC)ccc2OC)cc1C(=O)N[C@@H](Cc1c[nH]c2ccccc12)C(=O)O [Compound 310] | 0.119 µM | – | > 10 µM | 0.098 µM | 0.141 µM | ~1000 µg/mL (≈ 763 µM) | – | 0.242 µM | –
COc1ccc(NC(=O)[C@@H](CCCNC(N)=O)NC(=O)c2cc(NC(=O)[C@@H](CCCNC(=N)N)NC(=O)c3cc(NC(=O)[C@@H](CCCNC(=N)N)NC(=O)c4cc(NC(C)=O)ccc4OC)ccc3OC)ccc2OCC(=O)O)cc1C(=O)N[C@H](Cc1c[nH]c2ccccc12)C(N)=O [Compound 332] | > 5 µM | – | > 10 µM | > 5 µM | > 5 µM | 1000 µg/mL (≈ 738 µM) | – | > 5 µM | –
COc1ccc(NC(=O)[C@@H](CCCNC(N)=O)NC(=O)c2cc(NC(=O)[C@@H](CCCNC(N)=O)NC(=O)c3cc(NC(=O)[C@@H](CCCNC(=N)N)NC(=O)c4cc(NC(C)=O)ccc4OC)ccc3OC)ccc2OCC(=O)O)cc1C(=O)N[C@H](Cc1c[nH]c2ccccc12)C(N)=O [Compound 333] | > 5 µM | – | > 10 µM | > 5 µM | > 5 µM | 1000 µg/mL (≈ 737 µM) | – | > 5 µM | –
COc1ccc(NC(=O)[C@H](CCCCN)NC(=O)c2cc(NC(=O)[C@H](CCCCN)NC(=O)c3cc(NC(=O)[C@H](CCCCN)NC(=O)c4cc(NC(=O)[C@H](CCCCN)NC(=O)[C@@H](N)Cc5c[nH]c6ccccc56)ccc4OC)ccc3OC)ccc2OC)cc1C(N)=O [Compound 351] (H-WK[3Abz(6-OMe)]K[3Abz(6-OMe)]K[3Abz(6-OMe)]K-{NH(3-CONH2-4-OMe-phenyl)}) | 0.214 µM | – | 1.93 µM | 1.11 µM | 0.114 µM | > 1000 µg/mL | – | 0.194 µM | –
COc1ccc(NC(=O)[C@H](CCCCN)NC(=O)c2cc(NC(=O)[C@H](CCCCN)NC(=O)c3cc(NC(=O)[C@H](CCCCN)NC(=O)c4cc(NC(=O)[C@H](CCCCN)NC(=O)Cc5ccccc5)ccc4OC)ccc3OC)ccc2OCC(=O)O)cc1C(N)=O [Compound 356] | 0.127 µM | – | 1.89 µM | 0.512 µM | 0.1 µM | – | – | 0.204 µM | > 1000 µg/mL
COc1ccc(NC(=O)[C@H](CCCCN)NC(=O)c2cc(NC(=O)[C@H](CCCCN)NC(=O)c3cc(NC(=O)[C@H](CCCCN)NC(=O)c4cc(NC(=O)[C@H](CCCCN)NC(=O)[C@@H](N)Cc5ccccc5)ccc4OC)ccc3OC)ccc2OC)cc1C(N)=O [Compound 357] (H-FK[3Abz(6-OMe)]K[3Abz(6-OMe)]K[3Abz(6-OMe)]K-{NH(3-CONH2-4-OMe-phenyl)}) | 0.248 µM | – | 1.42 µM | 2.22 µM | 0.118 µM | > 1000 µg/mL | – | 0.187 µM | –
COc1ccc(NC(=O)[C@H](CCCCN)NC(=O)c2cc(NC(=O)[C@H](CCCCN)NC(=O)c3cc(NC(=O)[C@H](CCCCN)NC(=O)c4cc(NC(=O)[C@H](CCCCN)NC(=O)[C@@H](N)Cc5ccccc5)ccc4OC)ccc3OC)ccc2OCC(=O)O)cc1C(N)=O [Compound 358] (H-FK[3Abz(6-OMe)]K[3Abz(6-OMe)]K[X1]K-{NH(3-CONH2-4-OMe-phenyl)}) | 0.324 µM | – | 1.93 µM | 1.6 µM | 0.184 µM | > 1000 µg/mL | – | 0.314 µM | –
COc1cc(OC)c(C(=O)N[C@H]2CC[C@H](NC(=O)c3cc(C(=O)N[C@H]4CC[C@H](NC(=O)c5cc(C(=O)NCCN)c(OC)cc5OC)CC4)c(OCC(N)=O)cc3OC)CC2)cc1C(=O)NCCN [Compound 390] | 0.707 µM | 892 µg/mL (≈ 927 µM) | 2.08 µM | 1.28 µM | 0.708 µM | > 1000 µg/mL | 986 µg/mL (≈ 1020 µM) | – | –
COc1cc(OC)c(C(=O)N[C@H]2CC[C@H](NC(=O)c3cccc(C(=O)N[C@H]4CC[C@H](NC(=O)c5cc(C(=O)NCCN)c(OC)cc5OC)CC4)n3)CC2)cc1C(=O)NCCN [Compound 397] | 0.985 µM | 616 µg/mL (≈ 717 µM) | 1.15 µM | 2.63 µM | 0.955 µM | > 1000 µg/mL | 408 µg/mL (≈ 475 µM) | – | –
COc1cc(OC)c(C(=O)N[C@H]2CC[C@H](NC(=O)c3cccc(C(=O)N[C@H]4CC[C@H](NC(=O)c5cc(C(=O)NCCN)c(OC)cc5OC)CC4)c3)CC2)cc1C(=O)NCCN [Compound 398] | 2.53 µM | 1090 µg/mL (≈ 1270 µM) | 4.77 µM | 13.9 µM | 2.04 µM | > 1000 µg/mL | > 1000 µg/mL | – | –
COc1cc(OC)c(C(=O)N[C@H]2CC[C@H](NC(=O)c3cncc(C(=O)N[C@H]4CC[C@H](NC(=O)c5cc(C(=O)NCCN)c(OC)cc5OC)CC4)c3)CC2)cc1C(=O)NCCN [Compound 400] | 1.22 µM | 1300 µg/mL (≈ 1520 µM) | 5.09 µM | 5.51 µM | 1.18 µM | > 1000 µg/mL | > 1000 µg/mL | – | –
COc1cc(OC)c(C(=O)N[C@H]2CC[C@H](NC(=O)c3cc(C(=O)N[C@H]4CC[C@H](NC(=O)c5cc(C(=O)NCCN)c(OC)cc5OC)CC4)ncn3)CC2)cc1C(=O)NCCN [Compound 402] | 5.81 µM | 864 µg/mL (≈ 1000 µM) | 5.52 µM | 5.86 µM | 3.18 µM | > 1000 µg/mL | 753 µg/mL (≈ 875 µM) | – | –
COc1cc(OC)c(C(=O)N[C@H]2CC[C@@H](NC(=O)c3cc(C(=O)N[C@H]4CC[C@@H](NC(=O)c5cc(C(=O)NCCCN)c(OC)cc5OC)CC4)c(OC)cc3OC)CC2)cc1C(=O)NCCCN [Compound 404] | 0.35 µM | > 1000 µg/mL | 2.57 µM | 0.325 µM | 0.445 µM | – | 1100 µg/mL (≈ 1160 µM) | – | –
COc1cc(OC)c(C(=O)N[C@H]2CC[C@H](NC(=O)c3cc(C(=O)N[C@H]4CC[C@H](NC(=O)c5cc(C(=O)NCCCN)c(OC)cc5OC)CC4)c(OC)cc3OC)CC2)cc1C(=O)NCCCN [Compound 406] | 0.299 µM | 209 µg/mL (≈ 220 µM) | 2.46 µM | 0.113 µM | 0.436 µM | 12.1 µg/mL (≈ 12.8 µM) | 215 µg/mL (≈ 227 µM) | – | –
COc1cc(OC)c(C(=O)Nc2ccc(NC(=O)c3cc(C(=O)NCCN(C)C)c(OCCCCCN)cc3OCCCCCN)cc2)cc1C(=O)Nc1ccc(NC(=O)c2cc(C(=O)NCCN(C)C)c(OCCCCCN)cc2OCCCCCN)cc1 [Compound 410] | 0.056 µM | 250 µg/mL (≈ 200 µM) | 0.64 µM | 0.041 µM | 0.068 µM | – | 97.5 µg/mL (≈ 78.1 µM) | – | > 1000 µg/mL
